Common to all, as to test: NCI tumour cell line growth inhibition, 48 h
The test system of assay [1] is A498.
The test system of assay [2] is A549.
In assay [3] the test system is DU-145.
Assay [4] relates to HCC 2998.
Assay [5] relates to HL-60.
For assay [6], the system named is HOP-62.
Assay [7] deals with HT-29.
For assay [8], the system named is IGROV-1.
Assay [9] relates to K562.
Assay [10] relates to M14.
Assay [11] deals with NCI-H460.
The subject of assay [12] is NCI-H522.
The subject of assay [13] is PC-3.
Assay [14] concerns RXF 393.
The test system of assay [15] is SF-268.
Assay [16] relates to SK-MEL-28.
The subject of assay [17] is SNB-19.
The test system of assay [18] is T47D.
In assay [19] the test system is U-251.
Assay [20] concerns UO-31.

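Five compound concentrations were applied to cells in 96-well plates for 48 hours; endpoints were derived by simple linear interpolation of the resulting dose-response curve. GI50: concentration for 50% inhibition of growth.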 The source made the active and inactive calls. Rule as the data show it: active = GI50 up to about 1.1 µM and inactive = higher.

In the case of `[N-]=[N+]=CC(=O)CCC(N)C(=O)O` (stereo not given), the GI50 in assay [1] is 24.8 µM (inactive); in assay [2] it was 1.01 µM (active); in assay [3], 1.75 µM (inactive); in assay [4], 1.67 µM (inactive); in [5] it was 1.72 µM (inactive); in assay [6], 1.31 µM (inactive). The GI50 is 0.385 µM (active) in assay [7]; 1.92 µM (inactive) in [8]; 1.32 µM (inactive) in [9]; 1.33 µM (inactive) in [10]; 1.38 µM (inactive) in assay [11]; 3.01 µM (inactive) in assay [12]. The GI50 in assay [13] is 0.741 µM (active); in assay [14], 8.18 µM (inactive); in [15] it was 1.25 µM (inactive); in [16] it was 2.8 µM (inactive); in assay [17] it was 8.71 µM (inactive); in assay [18] it was 18.7 µM (inactive). Further, the GI50 in assay [19] was 1.55 µM (inactive); in assay [20], 5.12 µM (inactive).
Take `COc1ccccc1/C=C/c1c(N)ncnc1Nc1cccc(Cl)c1`: the GI50 in assay [1] was 12.7 µM (inactive); in [2], 14.6 µM (inactive); in assay [3] it was 36.6 µM (inactive); in assay [4], 27.4 µM (inactive); in assay [5], 0.282 µM (active); in assay [6] it was 19.4 µM (inactive). Besides, the GI50 in [7] was 17.7 µM (inactive); in [8] it was 1.69 µM (inactive); in [9], 0.376 µM (active); in [10], 26.5 µM (inactive); in [11] it was 20.7 µM (inactive); in assay [12], 10.8 µM (inactive). Also, the GI50 in [13] is 0.164 µM (active); in [14], 16 µM (inactive); in assay [15], 16.1 µM (inactive); in assay [16], 16.4 µM (inactive); in assay [17], 20.6 µM (inactive); in assay [18] it was 40.4 µM (inactive). In addition, the GI50 in assay [19] is 15.7 µM (inactive); in assay [20], 20.6 µM (inactive).
As for `C=C1C(=O)O[C@@H]2/C=C(\C)CC/C=C(\C)CC[C@@]12O`, the GI50 is 9.12 µM (inactive) in [1]; 11.6 µM (inactive) in [2]; 1.97 µM (inactive) in assay [3]; 5.31 µM (inactive) in [4]; 0.771 µM (active) in assay [5]; 5.07 µM (inactive) in [6]. In addition, the GI50 is 2.99 µM (inactive) in [7]; 3.52 µM (inactive) in [8]; 2.42 µM (inactive) in assay [9]; 3.7 µM (inactive) in assay [10]; 9.55 µM (inactive) in assay [11]; 0.371 µM (active) in [12]. For the same compound, the GI50 in assay [13] was 4.28 µM (inactive); in assay [14], 0.185 µM (active); in assay [15], 5.37 µM (inactive); in assay [16], 3.99 µM (inactive); in assay [17] it was 5.43 µM (inactive); in [18], 1.41 µM (inactive). Moreover, the figures for the GI50 in [19] and in assay [20] were 7.36 µM (inactive) and 1.48 µM (inactive), respectively.
As to `CN1N=C(c2ccncc2)OC1c1ccc(Cl)c(Cl)c1` (stereo not given), the GI50 in [1] is 82 µM (inactive); in assay [2] it was > 100 µM (inactive); in assay [3], > 100 µM (inactive); in assay [4], > 100 µM (inactive); in [5], 69.8 µM (inactive); in [6], > 100 µM (inactive). The GI50 was 60.8 µM (inactive) in assay [7]; > 100 µM (inactive) in [8]; 61.8 µM (inactive) in [9]; > 100 µM (inactive) in assay [10]; > 100 µM (inactive) in assay [11]; > 100 µM (inactive) in assay [12]. Further, the GI50 in assay [13] is > 100 µM (inactive); in [14], 74.1 µM (inactive); in assay [15] it was > 100 µM (inactive); in assay [16], > 100 µM (inactive); in assay [17], > 100 µM (inactive); in assay [18] it was > 100 µM (inactive). Moreover, the GI50 in [19] and in assay [20] was > 100 µM (inactive) in each case.
Regarding `C/C(=N\NC(=[Se])N(C)C)c1ccccn1`, the GI50 was 0.4 µM (active) in assay [1]; 0.02 µM (active) in assay [2]; 1.41 µM (inactive) in [3]; 0.459 µM (active) in assay [4]; < 0.01 µM (active) in assay [5]; < 0.01 µM (active) in assay [6]. The GI50 in [7] was < 0.01 µM (active); in assay [8], < 0.01 µM (active); in [9] it was < 0.01 µM (active); in assay [10] it was 0.0158 µM (active); in assay [11], < 0.01 µM (active); in [12], 0.0497 µM (active). The GI50 in assay [13] was < 0.01 µM (active); in assay [14] it was 0.455 µM (active); in assay [15] it was 0.216 µM (active); in [16], 1.91 µM (inactive); in assay [17], 1.37 µM (inactive); in assay [18], 0.0364 µM (active). Moreover, the GI50 in [19] was < 0.01 µM (active); in assay [20], 0.457 µM (active).
As for `CCOC(=O)C(NS(=O)(=O)c1ccccc1)(C(F)(F)F)P(=O)(OCC(C)C)OCC(C)C` (stereo not given), the GI50 in assay [1], in assay [2], in assay [3], in [4], in assay [5] and in assay [6] was > 100 µM (inactive) throughout. Besides, the GI50 in assay [7], in assay [8], in assay [9], in assay [10], in assay [11] and in assay [12] was > 100 µM (inactive) each time. The GI50 in [13], in assay [14], in assay [15], in assay [16], in [17] and in assay [18] was > 100 µM (inactive) in each case. Also, the values for the GI50 in assay [19] and in assay [20] were > 100 µM (inactive) and 98.2 µM (inactive), respectively.
For `Cc1cc(C)c(P2C(=C(O[Si](C(C)C)(C(C)C)C(C)C)C(C)(C)C)C2(c2ccccc2)c2ccccc2)c(C)c1` (stereo not given), the GI50 is > 100 µM (inactive) in assay [1]; 61.8 µM (inactive) in [2]; > 100 µM (inactive) in [3]; > 100 µM (inactive) in [4]; > 100 µM (inactive) in [5]; > 100 µM (inactive) in assay [6]. For the same compound, the GI50 was > 100 µM (inactive) in assay [7]; > 100 µM (inactive) in assay [8]; 67 µM (inactive) in assay [9]; > 100 µM (inactive) in assay [10]; > 100 µM (inactive) in assay [11]; 62.1 µM (inactive) in assay [12]. Also, the GI50 in [13] was 57.9 µM (inactive); in assay [14] it was > 100 µM (inactive); in [15] it was > 100 µM (inactive); in [16], > 100 µM (inactive); in [17], > 100 µM (inactive); in assay [18] it was > 100 µM (inactive). Also, the GI50 was > 100 µM (inactive) in assay [19] and 76.9 µM (inactive) in [20].
As for `O=C1OC(C2Cc3ccc4c(c3C2=O)CCC4)c2ccccc21` (stereo not given), the GI50 in assay [1] was 60.5 µM (inactive); in assay [2], 50 µM (inactive); in [3], 91.8 µM (inactive); in [4] it was 37.4 µM (inactive); in assay [5] it was 27.4 µM (inactive); in [6], > 100 µM (inactive). Further, the GI50 in assay [7] was 52.8 µM (inactive); in assay [8], 82.4 µM (inactive); in assay [9] it was 43.3 µM (inactive); in assay [10], 51.1 µM (inactive); in [11] it was 50.9 µM (inactive); in assay [12], > 100 µM (inactive). The GI50 was 30.5 µM (inactive) in [13]; 37.7 µM (inactive) in [14]; 42.9 µM (inactive) in assay [15]; 67.1 µM (inactive) in [16]; 52.4 µM (inactive) in [17]; 54.6 µM (inactive) in assay [18]. Moreover, the results for the GI50 in assay [19] and in assay [20] were 38.8 µM (inactive) and 45.4 µM (inactive), respectively.
As to `CN(C)/C=N/n1c2ccccc2c2ccccc21`, the GI50 is 26.4 µM (inactive) in assay [1]; > 100 µM (inactive) in assay [2]; > 100 µM (inactive) in [3]; > 100 µM (inactive) in assay [4]; > 100 µM (inactive) in [5]; > 100 µM (inactive) in [6]. The GI50 in assay [7], in assay [8], in assay [9], in assay [10], in [11] and in [12] was > 100 µM (inactive) each time. In addition, the GI50 in [13], in [14], in [15], in [16], in assay [17] and in assay [18] was > 100 µM (inactive) throughout. Besides, the GI50 in assay [19] and in assay [20] was > 100 µM (inactive) in each case.
On to `CC(=O)Nc1nnc(S(=O)(=O)NC(=S)Nc2ccc(Cl)cc2)s1`, for which the GI50 in assay [1], in [2], in assay [3], in assay [4], in [5] and in [6] was > 100 µM (inactive) each time. The GI50 in [7], in assay [8], in assay [9], in assay [10], in assay [11] and in [12] was > 100 µM (inactive) each time. Besides, the GI50 in [13], in assay [14], in assay [15], in assay [16], in assay [17] and in assay [18] was > 100 µM (inactive) in each case. Also, the GI50 in [19] and in assay [20] was > 100 µM (inactive) in each case.

The values are drawn from ChEMBL document CHEMBL1201862, “PubChem BioAssay data set” (2004).
